From publication PMC12627627 (Nature Communications, 2025)
Changes are numbered by the printed parent chain. Several values for one entry are separate records, joined by “and”; a condition that tells them apart may be missing. Identical values can stand only once.

Experiments:
R12 domain of RyR3 = biological target: T1, R12 domain of RyR3 (Homo sapiens, UniProt Q15413); assay: ITC, R12 domain of RyR3; type: binding
T1 construct: RyR1 854–1054, RyR2 865–1065, RyR3 853–1053; made in house; host or cells: E. coli BL21 (DE3)
T1 sequence (Q15413 853-1053): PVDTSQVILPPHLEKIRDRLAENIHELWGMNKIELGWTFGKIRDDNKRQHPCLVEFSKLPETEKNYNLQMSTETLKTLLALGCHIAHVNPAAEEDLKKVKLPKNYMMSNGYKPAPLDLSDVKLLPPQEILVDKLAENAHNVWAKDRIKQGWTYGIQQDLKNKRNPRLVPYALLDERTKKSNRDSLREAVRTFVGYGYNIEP
Method: (§1) The plasmids were subsequently transformed into E. coli BL21 (DE3) cells (NEB, USA) and cultured in Luria-Bertani (LB) media at 37 °C. Protein expression was induced with 0.4 mM isopropyl β-D-thiogalactoside (IPTG) when the optical density (OD)600 reached ~0.8, followed by incubation at 18 °C for 12 h. The cells were harvested via centrifugation at 5,000 × g for 15 min at 4 °C and homogenized in Buffer A (10 mM HEPES, pH 7.4, 250 mM KCl) supplemented with 25 µg/mL DNaseI, 25 µg/mL lysozyme, 1 mM phenylmethylsulfonyl fluoride (PMSF), and 20 mM imidazole. The homogenate was centrifuged at 12,000 × g for 45 min, and the supernatant was filtered through a syringe filter (0.22 µm).
(§2) Purified R12 domain protein from the three RyR isoforms, fused with hexahistidine-tagged MBP (HMT-R12) was dialyzed overnight at 4 °C in ITC buffer (200 mM HEPES, pH 7.4, 150 mM KCl). ITC experiments were performed using a PEAQ-ITC instrument (Malvern, UK) at 25 °C with a stirring speed of 750 rpm. […] For the ternary binding experiments, 500 μM or 5 mM AMP-PCP/ADP was preincubated with both the titrants and titrates. […] The data was fit to a one-site fitting model after background buffer subtraction. The RyR1 R12 mutants were generated using a QuikChange mutagenesis kit (Stratagene) according to the manufacturer’s protocol, with primer sequences listed in Supplementary Table 3.

R12 domain of RyR1 = biological target: T2, R12 domain of RyR1 (Homo sapiens, UniProt P21817); assay: ITC, R12 domain of RyR1; type: binding
T2 construct: RyR1 854–1054, RyR2 865–1065, RyR3 853–1053; made in house; host or cells: E. coli BL21 (DE3)
T2 sequence (P21817 854-1054): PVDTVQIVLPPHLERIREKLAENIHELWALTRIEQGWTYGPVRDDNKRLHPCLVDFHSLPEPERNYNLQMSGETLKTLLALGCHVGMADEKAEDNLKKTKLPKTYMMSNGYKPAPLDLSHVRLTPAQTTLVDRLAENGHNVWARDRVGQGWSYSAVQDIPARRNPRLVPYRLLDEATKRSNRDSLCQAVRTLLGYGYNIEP
Method: as §1, §2

RyR1 R2163C = biological target: T3, RyR1 R2163C (Oryctolagus cuniculus, UniProt P11716, R2163C); assay: Time-lapse [Ca2+]ER measurement, HEK293 cells expressing RyR1 R2163C; type: cell-based; conditions: for ER luminal [Ca2+] change (F/F0): Fig. 5D source data, RyR1-R2163C
T3 construct: expressed in transfected cells
Method: HEK293 cells stably expressing R-CEPIA1er and RyRs (WT RyR1, RyR1-W881A, RyR1-W995A, RyR1-R2163C, and WT RyR2)[26],[27] were used in this study. Briefly, the cells were seeded at a density of 2 × 10⁴ cells/well in a 96-well black, clear-bottom plate (Corning). Doxycycline (2 µg/mL) was added 12 h after seeding, and the medium was replaced 24 h later with HEPES-buffered Krebs solution (5 mM HEPES, pH 7.4; 140 mM NaCl; 5 mM KCl; 2 mM CaCl₂; 1 mM MgCl₂; and 11 mM glucose). Fluorescence measurements were conducted using a FlexStation 3 fluorometer (Molecular Devices) at 37 °C. The R-CEPIA1er was excited at 560 nm, emitted at 610 nm, and captured every 10 seconds over 300 seconds. […] The fluorescence changes (F/F₀) were calculated by dividing the average fluorescence of the last 100 seconds (F) by that of the first 100 seconds (F₀). All measurements were performed in triplicate.

RyR1-W881A R12 = biological target: T4, RyR1-W881A R12 (Homo sapiens, UniProt P21817, W881A); assay: ITC, RyR1 R12 W881A; type: binding; conditions: RyR1-W881A R12, no nucleotide
T4 construct: RyR1 854–1054, RyR2 865–1065, RyR3 853–1053; made in house; host or cells: E. coli BL21 (DE3)
T4 sequence (P21817 854-1054 W881A): T2 sequence (P21817 854-1054) with W28A
Method: as §1, §2

Q: How did the Kd (R12 domain of RyR3; RyR3 R12 + 500 µM ADP) turn out when `O=C(C[C@@H](NCCCO)C(=O)O)Nc1ccc2ccccc2c1` [RI-2] was run?
A: The Kd was 28.6 ± 18.7 µM.

Q: And the “No of Sites (N)” value (R12 domain of RyR3; RyR3 R12 + 500 µM ADP)?
A: The value was 0.509 ± 0.54.

Q: What about the ΔH (R12 domain of RyR3; RyR3 R12 + 500 µM ADP) of the same compound?
A: Its ΔH is -6.40 ± 1.66 kcal/mol.

Q: And the “−TΔS” value (R12 domain of RyR3; RyR3 R12 + 500 µM ADP)?
A: The value was -0.27 kcal/mol.

Q: And the Kd (R12 domain of RyR3; RyR3 R12 + 500 µM AMP-PCP)?
A: The Kd was 7.85 ± 2.69 µM.

Q: What about the “No of Sites (N)” value (R12 domain of RyR3; RyR3 R12 + 500 µM AMP-PCP) of the same compound?
A: The value was 0.604 ± 0.31.

Q: What about the ΔH (R12 domain of RyR3; RyR3 R12 + 500 µM AMP-PCP) of the same compound?
A: Its ΔH is -3.25 ± 0.40 kcal/mol.

Q: And the “−TΔS” value (R12 domain of RyR3; RyR3 R12 + 500 µM AMP-PCP)?
A: The value was -3.72 kcal/mol.

Q: What about the Kd (R12 domain of RyR3; RyR3 R12 + 5 mM ADP) of the same compound?
A: Its Kd is 12.9 ± 6.2 µM.

Q: And the “No of Sites (N)” value (R12 domain of RyR3; RyR3 R12 + 5 mM ADP)?
A: Its value is 0.694 ± 0.42.

Q: And the ΔH (R12 domain of RyR3; RyR3 R12 + 5 mM ADP)?
A: The ΔH was -11.9 ± 4.87 kcal/mol.

Q: And the “−TΔS” value (R12 domain of RyR3; RyR3 R12 + 5 mM ADP)?
A: Its value is 5.75 kcal/mol.

Q: And the Kd (R12 domain of RyR3; RyR3 R12 + 5 mM AMP-PCP)?
A: Its Kd is 3.39 ± 0.83 µM.

Q: And the “No of Sites (N)” value (R12 domain of RyR3; RyR3 R12 + 5 mM AMP-PCP)?
A: Its value is 0.508 ± 0.21.

Q: What about the ΔH (R12 domain of RyR3; RyR3 R12 + 5 mM AMP-PCP) of the same compound?
A: The ΔH was -4.58 ± 0.28 kcal/mol.

Q: And the “−TΔS” value (R12 domain of RyR3; RyR3 R12 + 5 mM AMP-PCP)?
A: The value was -2.89 kcal/mol.

Q: And the “No of Sites (N)” value (R12 domain of RyR3; RyR3 R12, no nucleotide)?
A: The value was 0.970 ± 0.19.

Q: What about the ΔH (R12 domain of RyR3; RyR3 R12, no nucleotide) of the same compound?
A: Its ΔH is -16.2 ± 16.70 kcal/mol.

Q: What about the “−TΔS” value (R12 domain of RyR3; RyR3 R12, no nucleotide) of the same compound?
A: The value was 10.6 kcal/mol.

Q: What about the Kd (R12 domain of RyR3; RyR3 R12, no nucleotide, ITC 25 °C) of the same compound?
A: The Kd was 178 ± 93.1 µM.

Q: And the Kd (R12 domain of RyR1; RyR1 R12 + 500 µM ADP)?
A: Its Kd is 49.1 ± 50.1 µM.

Q: And the “No of Sites (N)” value (R12 domain of RyR1; RyR1 R12 + 500 µM ADP)?
A: The value was 0.605 ± 0.21.

Q: And the ΔH (R12 domain of RyR1; RyR1 R12 + 500 µM ADP)?
A: The ΔH was -3.08 ± 0.20 kcal/mol.

Q: What about the “−TΔS” value (R12 domain of RyR1; RyR1 R12 + 500 µM ADP) of the same compound?
A: The value was -4.30 kcal/mol.

Q: And the Kd (R12 domain of RyR1; RyR1 R12 + 500 µM AMP-PCP)?
A: The Kd was 1.75 ± 0.29 µM.

Q: And the “No of Sites (N)” value (R12 domain of RyR1; RyR1 R12 + 500 µM AMP-PCP)?
A: Its value is 0.721 ± 0.12.

Q: What about the ΔH (R12 domain of RyR1; RyR1 R12 + 500 µM AMP-PCP) of the same compound?
A: Its ΔH is -5.47 ± 0.17 kcal/mol.

Q: And the “−TΔS” value (R12 domain of RyR1; RyR1 R12 + 500 µM AMP-PCP)?
A: Its value is -2.39 kcal/mol.

Q: What about the Kd (R12 domain of RyR1; RyR1 R12 + 5 mM ADP) of the same compound?
A: The Kd was 3.86 ± 0.975 µM.

Q: And the “No of Sites (N)” value (R12 domain of RyR1; RyR1 R12 + 5 mM ADP)?
A: The value was 0.912 ± 0.43.

Q: And the ΔH (R12 domain of RyR1; RyR1 R12 + 5 mM ADP)?
A: The ΔH was -15.09 ± 11.60 kcal/mol.

Q: What about the “−TΔS” value (R12 domain of RyR1; RyR1 R12 + 5 mM ADP) of the same compound?
A: Its value is 10.1 kcal/mol.

Q: And the Kd (R12 domain of RyR1; RyR1 R12 + 5 mM AMP-PCP)?
A: The Kd was 0.56 ± 0.17 µM.

Q: And the “No of Sites (N)” value (R12 domain of RyR1; RyR1 R12 + 5 mM AMP-PCP)?
A: The value was 0.547 ± 0.43.

Q: And the ΔH (R12 domain of RyR1; RyR1 R12 + 5 mM AMP-PCP)?
A: The ΔH was -7.05 ± 0.69 kcal/mol.

Q: And the “−TΔS” value (R12 domain of RyR1; RyR1 R12 + 5 mM AMP-PCP)?
A: Its value is -0.11 kcal/mol.

Q: And the “No of Sites (N)” value (R12 domain of RyR1; RyR1 R12, no nucleotide)?
A: Its value is 0.519 ± 0.25.

Q: And the ΔH (R12 domain of RyR1; RyR1 R12, no nucleotide)?
A: The ΔH was -5.61 ± 0.73 kcal/mol.

Q: And the “−TΔS” value (R12 domain of RyR1; RyR1 R12, no nucleotide)?
A: Its value is 0.944 kcal/mol.

Q: And the Kd (R12 domain of RyR1; RyR1 R12, no nucleotide, ITC 25 °C)?
A: Its Kd is 159 µM and 158 µM.

Q: And the “[Ca2+]ER change (F/F0)” value (RyR1 R2163C; 100 µM compound, compared with 2.5% DMSO, Fig. S10 source data, single replicates)?
A: Its value is 1.393 and 1.514 and 1.475.

Q: And the “ER luminal [Ca2+] change (F/F0)” value (RyR1 R2163C; RI-2 0.1 uM, single replicates)?
A: The value was 0.9503 and 1.0903 and 0.9717.

Q: What about the “ER luminal [Ca2+] change (F/F0)” value (RyR1 R2163C; RI-2 0.5 uM, single replicates) of the same compound?
A: The value was 0.9981 and 0.9736 and 1.043.

Q: What about the “ER luminal [Ca2+] change (F/F0)” value (RyR1 R2163C; RI-2 1 uM, single replicates) of the same compound?
A: Its value is 1.073 and 0.9956 and 0.9903.

Q: What about the “ER luminal [Ca2+] change (F/F0)” value (RyR1 R2163C; RI-2 5 uM, single replicates) of the same compound?
A: The value was 1.035 and 0.9806 and 0.9738.

Q: And the “ER luminal [Ca2+] change (F/F0)” value (RyR1 R2163C; RI-2 10 uM, single replicates)?
A: Its value is 1.082 and 1.203 and 1.117.

Q: What about the “ER luminal [Ca2+] change (F/F0)” value (RyR1 R2163C; RI-2 25 uM, single replicates) of the same compound?
A: Its value is 1.365 and 1.221 and 1.3399.

Q: What about the “ER luminal [Ca2+] change (F/F0)” value (RyR1 R2163C; RI-2 50 uM, single replicates) of the same compound?
A: Its value is 1.514 and 1.709 and 1.462.

Q: What about the “ER luminal [Ca2+] change (F/F0)” value (RyR1 R2163C; RI-2 75 uM, single replicates) of the same compound?
A: Its value is 1.641 and 1.709 and 1.614.

Q: What about the “ER luminal [Ca2+] change (F/F0)” value (RyR1 R2163C; RI-2 100 uM, single replicates) of the same compound?
A: Its value is 1.752 and 1.723 and 1.637.

Q: And the IC50 (RyR1 R2163C; HEK293 cells stably expressing RyR1 R2163C, ER Ca2+ fluorescence, dose-dependent)?
A: The IC50 was 28 µM.

Q: And the Kd (RyR1-W881A R12)?
A: The Kd was 292 ± 22.5 µM.

Q: What about the “No of Sites (N)” value (RyR1-W881A R12) of the same compound?
A: The value was 0.94 ± 0.46.

Q: What about the ΔH (RyR1-W881A R12) of the same compound?
A: The ΔH was -10.7 ± 3.83 kcal/mol.

Q: What about the “−TΔS” value (RyR1-W881A R12) of the same compound?
A: The value was 4.71 kcal/mol.
